Test results published in publication PMC6878970, “Understanding the physicochemical properties and degradation kinetics of nicotinamide riboside, a promising vitamin B3nutritional supplement” (Food & Nutrition Research, 2019).
“And” between values parts separate entries of the source, which are not always exact repeats. Identical values can stand only once.

Tests used:
[1] = Degradation kinetics of NRCl in aqueous solutions (Arrhenius); format: physicochemical; conditions: for activation energy Ea of degradation: 55, 65, 75°C, n = 5
Experimental: NRCl degradation products and mechanism were determined and confirmed using ^1H NMR. NRCl degradation kinetics in aqueous solution was determined using three pH environments: pH 2.0, 5.0, and 7.4 (each with a constant ionic strength of 0.3M adjusted using NaCl), and three experimental temperature conditions, namely, 55°C, 65°C, and 75°C, respectively. In all cases, five replicates were used for pH–temperature combinations and each was an individual, sealed, and labelled glass vial with 20mL of the respective buffer. For each experiment, these vials were left overnight to equilibrate to the respective temperature environment in a temperature-controlled oven. At the start of each experiment, the vials were removed and a stock solution of NR was added. Aliquots were then extracted from each vial at this point for a t = 0 and the vials were placed back into the oven until the next time point. The sampling intervals were every 2, 1, and 0.5 h for 55°C, 65°C, and 75°C, respectively, and a total of five time points were used for each individual vial. When an aliquot was removed, it was dispensed into a 2mL micro tube and placed in ice to quench the reaction until preparation for HPLC analysis.

[2] = Combinatorial DSC and 1H NMR (qNMR) thermal decomposition; format: physicochemical; conditions: quench-cooled
Experimental: A Bruker® Ultrashield 400 MHz NMR was used for NMR spectroscopy. All samples were prepared using deuterated water. For ^1H NMR spectra acquisition, 256 scans were used. A relative quantitative NMR (qNMR) method was established and validated by comparing the integral values of NR chemical shift peaks to the integral values of the peaks of Nam. The integral of a peak is directly proportional to the number of nuclei the peak represents and the molar concentration of the compound in the sample ([14]). The percentage of NR was calculated using Equation 2 (modified from the literature), where INR H2 and INam H2 were the integral values of the singlet of NR H2 at 9.6 ppm and the singlet for Nam H2 at 8.6 ppm, respectively. N represents the number of nuclei (protons) that contribute to each peak. In this case, N = 1 for both NR H2 and Nam H2 peaks as they represent one proton each.
% NR in smaple=(INR H2/NNR H2)/(INR H2/NNR H2)+(INam H2/NNam H2)×100 Equation 2
DSC was used in conjunction with ^1H NMR spectroscopy to assess NR stability at certain temperatures and confirm compositional change throughout the entire thermal degradation process. […] This was then repeated in pans with no lids and these pans were then put in 1mL of D2O until all the contents were fully dissolved. The resulting D2O solutions were then subjected to ^1H NMR analysis, as previously detailed, to assess the stability of NRCl at each stage of its melting motif.

[3] = design: method as in PMID 26791540; conditions: cited from earlier work
mammalian cell lines = system: mammalian cell lines; design: method as in PMID 18052316; conditions: cited from earlier work
Sirtuin (SIRT) = system: Sirtuin (SIRT); design: method as in PMID 12297502, PMID 14522996, PMID 12899610; conditions: cited from earlier work
[4] = Experimental determination of pKa by UV spectroscopy; format: physicochemical; conditions: NaOH solutions; first focused experiment, pH range 11.0–12.2
Experimental: NR stock solution was added to nine respective buffer solutions ranging from pH 1.5 to 12.8 and analysed by UV spectroscopic scanning over 200–500 nm using a Cary 50 scan UV-visible spectrophotometer (Agilent Technologies, USA). […] Equation 1 is a modified Beers–Lambert and Henderson–Hasselbalch equation ([14]). This was used to calculate pKa. AI is the absorbance of the ionised species, AM is the absorbance of the molecular species, and A is the absorbance at any given pH. The same method as above was then repeated using the same parameters and equipment for a duplicate result.
pKa=pH+logAI−A/A−AM Equation 1

[5] = Aqueous solubility determination; format: physicochemical; conditions: for solubility at 24 h: aqueous buffer, thermodynamic from solid
Experimental: Three pH environments, namely pH 2.0, 5.0, and, 7.4, were used to determine the aqueous solubility of NR. Each buffer was added to a glass vial and stored at 4°C prior to the experiments. NRCl powder was then slowly added over a 24-h-periodunder constant mixing until the solution was clearly saturated (visual observation, n = 3). Aliquots were then drawn from each vial and passed through a 0.22 μm syringe filter unit (Millipore, Merck, USA). Samples were then analysed using the validated HPLC method.

[6] = NRCl stability in simulated gastrointestinal fluids; format: physicochemical
Experimental: NRCl powder was tested under simulated GI conditions to assess the stability of the raw material in fluids relevant to the GI physiology. These experiments were carried out using a Copley™ dissolution bath equipped with the USP II paddle apparatus at a stirring rate of 75rpm and a temperature of 37°C± 0.1°C. Five dissolution media were tested (Table 2). 0.1N HCl, USP simulated gastric fluid without pepsin (USP SGFW/O pepsin), and USP simulated gastric fluid with pepsin (USP SGF) were used to simulate the stomach environment. Phosphate standard buffer (Int. Pharm. SIF) and simulated intestinal fluid pH 6.8 (USP SIF) were used to simulate the intestinal environment. A 24-h simulation was also performed using the USP prolonged release (USP PR) method whereby for the first 2 h of the experiment the NRCl was added to 750 mL 0.1N HCl. Subsequently, 250 mL of 0.2M trisodium phosphate was added and pH adjusted to pH 6.8 for the remaining 22 h. This step-change pH model simulates the pH change in traversing from the stomach to the intestine ([15]).

human blood NAD+ = system: human blood NAD+; design: method as in PMID 27721479; conditions: after one single oral dose; cited from earlier work

With NC(=O)c1ccc[n+]([C@@H]2O[C@H](CO)[C@@H](O)[C@H]2O)c1 [NR, Nicotinamide riboside] the “pre-exponential factor A of degradation” value ([1]; pH 2.0) was 4.8e+10 min⁻¹, the “activation energy Ea of degradation” value ([1]; pH 2.0) was 75.4 (±2.9) kJ/mol and 75.4 kJ/mol and the “pre-exponential factor A of degradation” value ([1]; pH 5.0) was 3.2e+10 min⁻¹. The “activation energy Ea of degradation” value ([1]; pH 5.0) was 76.9 (±1.1) kJ/mol and 76.9 kJ/mol, the “pre-exponential factor A of degradation” value ([1]; pH 7.4) was 1.8e+12 min⁻¹ and the “activation energy Ea of degradation” value ([1]; pH 7.4) was 82.8 kJ/mol. The “increase in the degradation rate for every 10°C temperature elevation” value ([1]; same pH environment) was “approximate twofold increase”, the “degradation (qNMR)” value ([2]; solid heated to 115°C) was 2% and the “degradation (qNMR)” value ([2]; solid heated to 120°C) was 7%. For the same compound, the “degradation (qNMR)” value ([2]; solid heated to 125°C) was 55%, the “share of the sample that was NR (qNMR)” value ([2]; solid heated to 140°C) was 0.45% and the “lowest adverse effect level” value [3] was 1,000 mg/kg/day. For the same compound, the “no-observed-adverse-effect level (NOAEL)” value [3] was 300 mg/kg/day and the “increase of available NAD+” value (mammalian cell lines) was “up to twofold”.

For NC(=O)c1cccnc1 [Nam, Nicotinamide], the “Sirtuin (SIRT) inhibition” value (Sirtuin (SIRT)) is given as “known Sirtuin (SIRT) inhibitor”.

With NC(=O)c1ccc[n+]([C@@H]2O[C@H](CO)[C@@H](O)[C@H]2O)c1 [NRCl, nicotinamide riboside chloride] the pKa [4] was 11.5 ± 0.2, the “solubility class according to the USP definitions” value ([5]; all three tested pH environments (2.0, 5.0, 7.4), freely soluble = 100–1,000 mg/mL) was “freely soluble” and the solubility at 24 h ([5]; pH 7.4, aqueous buffer) was 826 ± 34.4 mg/mL. For the same compound, the solubility at 24 h ([5]; pH 2.0) was 972.7 ± 8.1 mg/mL, the solubility at 24 h ([5]; pH 5.0) was 860 ± 31 mg/mL and the NRCl remaining ([6]; 0.1N HCl pH 1.2, 37°C, 75rpm, after 2 h) was 97.64 ± 0.08%. It also gave an NRCl remaining ([6]; 24-h GI simulation (USP PR, pH 1.2 then 6.8 after 2 h), after 8 h) of 90.51 ± 0.82%, an NRCl remaining ([6]; Int. Pharm. SIF pH 6.8, 37°C, after 2 h) of 94.32 ± 1.16% and an NRCl remaining ([6]; Int. Pharm. SIF pH 6.8, 37°C, after another 2 h (4 h)) of 92.71 ± 0.81%. For the same compound, the NRCl remaining ([6]; USP SGF (with pepsin) pH 1.2, 37°C, 75rpm, after 2 h) was 97.17 ± 0.19%, the NRCl remaining ([6]; USP SGF without pepsin pH 1.2, 37°C, 75rpm, after 2 h) was 98.59 ± 0.10% and the NRCl remaining ([6]; USP SIF pH 6.8, 37°C, after 2 h) was 94.71 ± 2.66%. For the same compound, the NRCl remaining ([6]; USP SIF pH 6.8, 37°C, after another 2 h (4 h)) was 93.54 ± 2.37%, the “change of degradation rate on raising the pH value from 5.0 to 7.4” value ([1]; at each respective temperature) was “doubled” and the “activation energy Ea of degradation” value ([1]; pH 7.4) was 82.8 (±4.4) kJ/mol. For the same compound, the “degradation (qNMR)” value ([2]; solid heated to 115°C) was “completely intact” and the “increase in human blood NAD+” value (human blood NAD+) was “more than twofold”.
